In US6432934B1, “Methods and compositions for topical treatment of eye surface inflammation and related dry eye disease” (Advanced Vision Research, priority 1998, dated 2002):

How the values were obtained:
[1] = tested on: rabbit model for meibomianitis/meibomian gland dysfunction; assay: Conjunctival goblet-cell density, rabbit model for meibomianitis/meibomian gland dysfunction; format: in vivo, New Zealand white rabbits; conditions: intramuscular 50 mg/kg/d, five days each week, weeks 8-20 post-op
[2] = tested on: rabbit model for meibomianitis/meibomian gland dysfunction; assay: Corneal epithelial glycogen level, rabbit model for meibomianitis/meibomian gland dysfunction; format: in vivo, New Zealand white rabbits; conditions: intramuscular 50 mg/kg/d, five days each week, weeks 8-20 post-op

CN(C)[C@@H]1C(O)=C(C(N)=O)C(=O)[C@@]2(O)C(O)=C3C(=O)c4c(O)cccc4[C@@](C)(O)[C@H]3C[C@@H]12.Cl [systemic tetracycline, tetracycline hydrochloride]
effect on conjunctival goblet-cell density [1]: no effect | effect on corneal glycogen [2]: no effect
